What was measured:
Assay type in all cases: in vivo, mice
bifidobacteria = test: Microbiota counts in feces: bifidobacteria; conditions: after administration of DSS; HED 10 mg
Procedure: (§1) A model for intestinal inflammation based on the administration of DSS (sodium dextran sulfate) to C57BL/6 mice was used. At the present time there is no consensus about which overall is the best model for experimental colitis. The DSS model has been widely used because it has clinical, morphological and analytical characteristics which up to a point are similar to those specific to patients with ulcerative colitis or Crohn's disease.
(§2) The in vivo inflammation test was carried out using duplicates separated by a number of months. In each test each group of animals (n=8) was fed a standard diet supplemented with 2.3 mg/day/kg (animal weight) of each of the compounds, depending upon the group. This dose assumes the ingestion of 0.05 mg/day (50 μg/day) per mouse (having a mean weight of 22 grams). This dose extrapolated to a human being is equivalent to 10 mg in an adult weighing 70 kg; using the formula HED (human equivalent dose)=animal dose in mg/kg×(animal weight kg/human weight in kg)^0.33.
(§3) In each test the mice were fed for 3 weeks during which 1% DSS was included in their drink. The DSS was maintained for 8 days (and the same food as from the start). Then the DSS was withdrawn and the animals were allowed to recover for another 6 days (again with the same food).
(§4) • Monitoring of weight, food and drink ingestion. The mice in all groups were individually monitored, with weight, quantity of food ingested and water drunk each day being monitored throughout the experimental test. • Blood and water in feces. The water content of feces, as an indication of diarrhea, was evaluated using the difference in weight following evaporation in a stove. Blood was measured using reactive strips based on the guaiacol-peroxidase reaction (HealthCare Diagnosis Inc.). […] The reaction was measured using a scale from 0 (negative result) to 4 (most intense color change). • Length of colon. After sacrifice the colon was obtained from each mouse, extended and measured. […] This was evaluated by spectrophotometry at 460 nm using O-dianisidine reagent and hydrogen peroxide. The change in absorbance at 460 nm was monitored over 10 minutes in a V-630 spectrophotometer (Jasco, Tokyo, Japan). MPO activity was expressed as mU of activity/mg of fresh tissue, comparing the increase in absorbance with a standard straight line obtained using leukocyte myeloperoxidase (Sigma). • Prostaglandins in colonic mucosa. Levels of PGE2 were measured in colonic mucosa homogenates using an immunoenzyme method using a Cayman Chem. kit (USA). • “Antibody array”. […] The signal was detected by chemoluminescence. […] Signal intensities (densitometry) were analyzed using ScanAlyze software. […] The changes in cytokine levels were expressed as mean±SD in arbitrary density units. […]

E. coli = test: Microbiota counts in feces: E. coli; conditions: after administration of DSS; HED 10 mg
Procedure: as §1
as §2, with “kg)^0.33. […]” for “kg)^0.33.”
• Monitoring of weight, food and drink ingestion. The mice in all groups were individually monitored, with weight, quantity of food ingested and water drunk each day being monitored throughout the experimental test. • Blood and water in feces. The water content of feces, as an indication of diarrhea, was evaluated using the difference in weight following evaporation in a stove. Blood was measured using reactive strips based on the guaiacol-peroxidase reaction (HealthCare Diagnosis Inc.). […] The reaction was measured using a scale from 0 (negative result) to 4 (most intense color change). • Length of colon. After sacrifice the colon was obtained from each mouse, extended and measured. […] This was evaluated by spectrophotometry at 460 nm using O-dianisidine reagent and hydrogen peroxide. The change in absorbance at 460 nm was monitored over 10 minutes in a V-630 spectrophotometer (Jasco, Tokyo, Japan). […] Levels of PGE2 were measured in colonic mucosa homogenates using an immunoenzyme method using a Cayman Chem. kit (USA). • “Antibody array”. […] The signal was detected by chemoluminescence. […]

Myeloperoxidase (MPO) = test: Myeloperoxidase activity in colonic mucosa (DSS model); conditions: after DSS; HED 10 mg
Procedure: as §1
(§5) The in vivo inflammation test was carried out using duplicates separated by a number of months. In each test each group of animals (n=8) was fed a standard diet supplemented with 2.3 mg/day/kg (animal weight) of each of the compounds, depending upon the group. […]
(§6) • Monitoring of weight, food and drink ingestion. The mice in all groups were individually monitored, with weight, quantity of food ingested and water drunk each day being monitored throughout the experimental test. • Blood and water in feces. The water content of feces, as an indication of diarrhea, was evaluated using the difference in weight following evaporation in a stove. Blood was measured using reactive strips based on the guaiacol-peroxidase reaction (HealthCare Diagnosis Inc.). […] The reaction was measured using a scale from 0 (negative result) to 4 (most intense color change). • Length of colon. After sacrifice the colon was obtained from each mouse, extended and measured. […]

[1] = system: TNFR1 (Tumor necrosis factor receptor, CD120a); test: Antibody array in colonic mucosa: TNFR1 (DSS model); conditions: after 8 days DSS, without recovery period; HED 10 mg
Procedure: as §1, §5, §6

clostridia = test: Microbiota counts in feces: clostridia; conditions: pre-treatment, maintained after DSS; HED 10 mg
Procedure: as §1, §5, §6

lactobacilli = test: Microbiota counts in feces: lactobacilli; conditions: pre-treatment, maintained after DSS; HED 10 mg
Procedure: as §1, §5, §6

fibrinogen = test: Systemic inflammation marker fibrinogen (DSS model); conditions: vs DSS group; HED 10 mg
Procedure: as §1, §2, §3, §4

haptoglobin = test: Systemic inflammation marker haptoglobin (DSS model); conditions: vs DSS group; HED 10 mg
Procedure: as §1, §2, §3, §4

SMILES | Bifidobacteria count in feces (bifidobacteria) | E. coli count in feces (E. coli) | Myeloperoxidase activity in colonic mucosa (Myeloperoxidase (MPO)) | Level of TNFR1 in colonic mucosa [1] | Population of clostridia in feces (clostridia) | Population of lactobacilli in feces (lactobacilli) | Blood fibrinogen levels (fibrinogen) | Blood haptoglobin levels (haptoglobin)
CCCC(=O)OCC1OC(Oc2cc(O)cc(/C=C/c3ccc(O)cc3)c2)C(O)C(O)C1O [BUT, trans-resveratrol-3-O-(6′-O-butanoyl)-β-D-glucopyranoside] | continued the upward trend | clear reduction | most obvious fall | values are similar to those for the control mice | increases the population | increases the population | most notable differences | most notable differences
CCCCCCCC(=O)OCC1OC(Oc2cc(O)cc(/C=C/c3ccc(O)cc3)c2)C(O)C(O)C1O [OCT, trans-resveratrol-3-O-(6′-O-octanoyl)-β-D-glucopyranoside] | continued the upward trend | clear reduction | most obvious fall | values are similar to those for the control mice | increases the population | increases the population | most notable differences | most notable differences

From patent US20120309699A1, “COMPOUNDS HAVING ANTI-INFLAMMATORY ACTIVITY” (Consejo Superior de Investigaciones Cientificas (CSIC), priority 2009, published 2012)
